This is an account of results in PMC5428058, “Local delivery of novel MRTF/SRF inhibitors prevents scar tissue formation in a preclinical model of fibrosis” (Scientific Reports, 2017).

In data set [1] the test system is New Zealand white rabbits. The data set is described as follows: rabbit glaucoma filtration surgery model of scar tissue formation, clinical end-points. Type of data set: in vivo. Conditions: for increase in IOP survival: 100 μM subconjunctival, IOP remains below baseline; for increase in long-term success of surgery (bleb survival) compared to vehicle control: 100 μl of 100 μM subconjunctival, day 30; for mean day of bleb failure: CCG compounds 100 μM subconjunctival, MMC 0.2 mg/ml intraoperative, vehicle 14 days; for intraocular pressure (IOP): versus vehicle control or baseline. An excerpt: 24 female New Zealand white rabbits (2–2.4 kg, 12—14 weeks, Highgate, UK) underwent experimental glaucoma filtration surgery to the left eye under general anaesthesia, [28]. A superonasal fornix-based conjunctival flap was raised behind the limbus and a micro-vitreoretinal blade (20 gauge, 0.90 mm, Surgistar USA) was used to make a partial thickness scleral tunnel to the corneal stroma. A 22 gauge, 25 mm intravenous cannula was passed through the tunnel and the needle was removed once it was visible in the cornea. The cannula was advanced into the mid-pupillary area, trimmed at its scleral edge and fixed to the scleral surface using a 10–0 nylon suture (Alcon, USA). The conjunctival incision was closed using two interrupted 10–0 nylon sutures. In a randomised, prospective, single-masked observer study, the rabbits received either intraoperative 0.2 mg/ml mitomycin-C (MMC) [N = 6], or postoperative subconjunctival injections (100 μl) of 100 μM CCG-203971 [N = 6] or 100 μM CCG-222740 [N = 6] or vehicle control [N = 6] daily for the first nine days followed by twice weekly for three weeks, [33]. CCG-222740 and CCG-203971 were dissolved in 100% DMSO (Sigma, UK) at 10 mM and then diluted to 100 μM with sterile PBS. The same volume of DMSO was diluted with PBS for the vehicle control. For the MMC-treated group, a small corneal light shield sponge was soaked in 1 ml of 0.2 mg/ml MMC and applied over the conjunctiva for 3 minutes, and the area was then thoroughly washed with 50 ml of physiologic balanced salt solution (Alcon Laboratories, Inc., Fort Worth, TX). All the postoperative subconjunctival injections were given at the same site by a single-masked researcher.
(§1) The animals were evaluated twice weekly by a single-masked researcher. Bleb width and length were measured using calipers and intraocular pressures (IOP) were measured using a tonovet (Icare). The primary efficacy end-point was bleb survival as this is indicative of the long-term opening of the filtration pathway created during surgery. Bleb failure was defined as the appearance of a flat, scarred, and vascularised bleb associated with a deep anterior chamber. IOP survival, defined as when the intraocular pressure remains below the baseline IOP measurement, and bleb area were used as secondary end-points. Conjunctival vascularity was graded on a scale of 0 to 3 (0: avascular, 1: normal, 2: hyperaemic, 3: very hyperaemic).

In data set [2] the test system is New Zealand white rabbits. Nature of the data set: local and systemic toxicity after glaucoma filtration surgery. Type of data set: in vivo. As to conditions: rabbit; for Ki67 positive cells in the conjunctival epithelium: day 30; for corneal or conjunctival toxicities, anterior chamber inflammation / local toxicity, conjunctival epithelium: local delivery; for systemic toxicity: local delivery to the conjunctiva. Here is the method:
as §1
For the Ki67 staining, the sections were dewaxed, rehydrated, and microwaved for 15 minutes in sodium citrate buffer (pH 6) for antigen retrieval. After incubating in 1.6% hydrogen peroxide followed by 10% normal horse serum, the sections were incubated in mouse anti-Ki67 (M7248, Dako) diluted 1 in 25 in 1% BSA/PBS for 1 hour at room temperature. The sections were then incubated in biotinylated horse anti-mouse IgG (Vector) and Avidin-Biotin complex (Vector), developed in DAB (Vector), and counterstained in haematoxylin.
All animals were carefully evaluated for any signs of ocular or systemic toxicity during the study. At day 30, 100 µl of aqueous, 1 ml of vitreous, and 1 ml of venous blood were sampled on the rabbit eyes receiving CCG-222740 or CCG-203971 or vehicle control. The venous blood samples were left to clot for 30 minutes at room temperature, spun at 4000 rpm for 15 minutes at 4 °C, and the serum was collected as the supernatant. Samples were extracted in acetonitrile and the levels of CCG-222740 and CCG-203971 were measured in the aqueous, vitreous, and serum using liquid chromatography/mass spectrometry (LC/MS) in the Metabolomics Core at Michigan State University (East Lansing, MI).

Data set [3] has as its system ACTA2 in rabbit conjunctival fibroblasts. Nature of the data set: ACTA2 gene expression by qRT-PCR (rabbit). Type of data set: cell-based. Conditions: 24 hours. As to the method: Human or rabbit conjunctival fibroblasts were plated at 1 × 10^5 cells/well in 6-well plates (Falcon, Fisher Scientific). The next day, the fibroblasts were treated with 5, 10, 25, or 50 μM of CCG-222740 or CCG-203971 or 0.1% DMSO control in DMEM +10% FCS for 24 hours. The fibroblasts were then lysed for RNA extraction using the Sigma RNA isolation kit (Sigma-Aldrich), according to the manufacturer’s instructions. Reverse transcription was carried out using the Transcriptor First Strand cDNA Synthesis Kit (Roche), according to the manufacturer’s instructions. qRT-PCR reactions were performed using SYBR green reagents (Life Technologies) on an HT7900 Fast Real-Time PCR system (Applied Biosystems). The human exonic primer sequences were: ACTA2, 5′-[…]-3′, 3′-[…]-5′; CTGF, 5′-CAGAGTGGAGCGCCTGTT-3′, 3′-CTGCAGGAGGCGTTGTCA-5′; GAPDH, 5′-[…]-3′, 3′-[…]-5′. The rabbit exonic primer sequences were ACTA2, 5′- […]-3′, 3′- […]-5′; GAPDH, 5′-CGAGACACGATGGTGAAGG-3′, 3′-[…]-5′. All mRNA values were normalised relative to that of GAPDH. Each experiment was carried out in triplicates for each treatment group and the experiment was repeated three times.
(In general: Real-time PCR tracks product formation cycle by cycle.)

Data set [4] deals with αSMA protein in human conjunctival fibroblasts. Nature of the data set: Western blot of αSMA protein expression. As to conditions: 10 or 25 μM, 48 hours. Format: cell-based. Here is the method: Human conjunctival fibroblasts were lysed using 2x SDS sample buffer (100 mM Tris HCL ph6.8, 4% SDS, 20% glycerol, 200 mM dithiothreitol, 0.2% bromophenol blue). Equal amounts of protein were loaded onto and run on 4–12% NuPAGE Bis-Tris protein gels (Novex, Life Technologies). The gels were transferred onto nitrocellulose blotting membranes (Amersham, Life Sciences), and blocked in 3% non-fat milk in PBST (PBS 0.1% Tween) for 1 hour. The membranes were then incubated overnight at 4 °C in αSMA primary antibody (1:200, polyclonal rabbit, ab5694, Abcam). The next day, the membranes were washed three times for 10 minutes in PBST, and incubated for 1 hour at room temperature in anti-rabbit HRP (1:2500, Dako). The membranes were then washed three times for 10 minutes in PBST, treated with ECL solution (Amersham, Life sciences) for 5 minutes, and scanned on an Odyssey IR Imager (LI-COR).
(In general: Immunoblotting shows a protein as a band on a membrane.)

Take `O=C(Nc1ccc(Cl)cc1)C1CCCN(C(=O)c2cccc(-c3ccco3)c2)C1` (stereo not shown) [CCG-203971]: in data set [1], the “bleb area compared to vehicle control” value is listed as “no statistically significant differences”, the “increase in IOP survival” value is 33%, the “increase in long-term success of surgery (bleb survival) compared to vehicle control” value is reported as 33% and the “mean day of bleb failure” value came to 22.5 days. In data set [1], the “intraocular pressure (IOP)” value is recorded as “remained consistently lower than baseline measurements”. In data set [2], the conjunctival vascularity entry is on record as “no abnormalities in conjunctival vascularity”; the “Ki67 positive cells in the conjunctival epithelium” value is reported as “normal Ki67 positive cells”; the “corneal or conjunctival toxicities, anterior chamber inflammation” value is “no signs of corneal or conjunctival toxicities or anterior chamber inflammation”; the “local toxicity, conjunctival epithelium” value is on record as “did not cause any detectable local toxicity”. In addition, the systemic toxicity entry in data set [2] was “none of them showed any signs of systemic toxicity”.

`O=C(Nc1ccc(Cl)cc1)C1CN(C(=O)c2cccc(-c3ccco3)c2)CC(F)(F)C1` (stereo not shown) [CCG-222740]: the “ACTA2 gene expression, comparison” value in data set [3] is reported as “decreased ACTA2 gene expression to a greater extent than CCG-203971”. Besides, the “αSMA protein expression, comparison” value in data set [4] is on record as “more potent than CCG-203971 at decreasing αSMA protein expression”. In data set [1], the “bleb area compared to vehicle control” value was “significantly larger bleb area”, the “increase in IOP survival” value was found to be 67%, the “increase in long-term success of surgery (bleb survival) compared to vehicle control” value worked out at 67% and the “mean day of bleb failure” value was determined as 28.5 days. Also, in data set [1], the “intraocular pressure (IOP)” value is listed as “remained consistently lower than baseline measurements”. Further, in data set [2], the conjunctival vascularity entry was “no abnormalities in conjunctival vascularity”; the “Ki67 positive cells in the conjunctival epithelium” value is listed as “normal Ki67 positive cells”; the “corneal or conjunctival toxicities, anterior chamber inflammation” value is on record as “no signs of corneal or conjunctival toxicities or anterior chamber inflammation”; the “local toxicity, conjunctival epithelium” value was “did not cause any detectable local toxicity”. The systemic toxicity result in data set [2] is “none of them showed any signs of systemic toxicity”.
